Data published in patent US7638526B2, “Azetidine derivatives useful in treating pain, diabetes and disorders of lipid metabolism” (Schering Corporation, priority 2006, dated 2009).

Each compound was assayed against T1, human Cav3.2 (Homo sapiens, UniProt O95180) (assay: Conventional whole cell patch clamp, hCav3.2 current). Conditions: values marked * in Table 10; voltage clamp assay.
T1 construct: expressed in transfected cells
T1 sequence (O95180 whole entry): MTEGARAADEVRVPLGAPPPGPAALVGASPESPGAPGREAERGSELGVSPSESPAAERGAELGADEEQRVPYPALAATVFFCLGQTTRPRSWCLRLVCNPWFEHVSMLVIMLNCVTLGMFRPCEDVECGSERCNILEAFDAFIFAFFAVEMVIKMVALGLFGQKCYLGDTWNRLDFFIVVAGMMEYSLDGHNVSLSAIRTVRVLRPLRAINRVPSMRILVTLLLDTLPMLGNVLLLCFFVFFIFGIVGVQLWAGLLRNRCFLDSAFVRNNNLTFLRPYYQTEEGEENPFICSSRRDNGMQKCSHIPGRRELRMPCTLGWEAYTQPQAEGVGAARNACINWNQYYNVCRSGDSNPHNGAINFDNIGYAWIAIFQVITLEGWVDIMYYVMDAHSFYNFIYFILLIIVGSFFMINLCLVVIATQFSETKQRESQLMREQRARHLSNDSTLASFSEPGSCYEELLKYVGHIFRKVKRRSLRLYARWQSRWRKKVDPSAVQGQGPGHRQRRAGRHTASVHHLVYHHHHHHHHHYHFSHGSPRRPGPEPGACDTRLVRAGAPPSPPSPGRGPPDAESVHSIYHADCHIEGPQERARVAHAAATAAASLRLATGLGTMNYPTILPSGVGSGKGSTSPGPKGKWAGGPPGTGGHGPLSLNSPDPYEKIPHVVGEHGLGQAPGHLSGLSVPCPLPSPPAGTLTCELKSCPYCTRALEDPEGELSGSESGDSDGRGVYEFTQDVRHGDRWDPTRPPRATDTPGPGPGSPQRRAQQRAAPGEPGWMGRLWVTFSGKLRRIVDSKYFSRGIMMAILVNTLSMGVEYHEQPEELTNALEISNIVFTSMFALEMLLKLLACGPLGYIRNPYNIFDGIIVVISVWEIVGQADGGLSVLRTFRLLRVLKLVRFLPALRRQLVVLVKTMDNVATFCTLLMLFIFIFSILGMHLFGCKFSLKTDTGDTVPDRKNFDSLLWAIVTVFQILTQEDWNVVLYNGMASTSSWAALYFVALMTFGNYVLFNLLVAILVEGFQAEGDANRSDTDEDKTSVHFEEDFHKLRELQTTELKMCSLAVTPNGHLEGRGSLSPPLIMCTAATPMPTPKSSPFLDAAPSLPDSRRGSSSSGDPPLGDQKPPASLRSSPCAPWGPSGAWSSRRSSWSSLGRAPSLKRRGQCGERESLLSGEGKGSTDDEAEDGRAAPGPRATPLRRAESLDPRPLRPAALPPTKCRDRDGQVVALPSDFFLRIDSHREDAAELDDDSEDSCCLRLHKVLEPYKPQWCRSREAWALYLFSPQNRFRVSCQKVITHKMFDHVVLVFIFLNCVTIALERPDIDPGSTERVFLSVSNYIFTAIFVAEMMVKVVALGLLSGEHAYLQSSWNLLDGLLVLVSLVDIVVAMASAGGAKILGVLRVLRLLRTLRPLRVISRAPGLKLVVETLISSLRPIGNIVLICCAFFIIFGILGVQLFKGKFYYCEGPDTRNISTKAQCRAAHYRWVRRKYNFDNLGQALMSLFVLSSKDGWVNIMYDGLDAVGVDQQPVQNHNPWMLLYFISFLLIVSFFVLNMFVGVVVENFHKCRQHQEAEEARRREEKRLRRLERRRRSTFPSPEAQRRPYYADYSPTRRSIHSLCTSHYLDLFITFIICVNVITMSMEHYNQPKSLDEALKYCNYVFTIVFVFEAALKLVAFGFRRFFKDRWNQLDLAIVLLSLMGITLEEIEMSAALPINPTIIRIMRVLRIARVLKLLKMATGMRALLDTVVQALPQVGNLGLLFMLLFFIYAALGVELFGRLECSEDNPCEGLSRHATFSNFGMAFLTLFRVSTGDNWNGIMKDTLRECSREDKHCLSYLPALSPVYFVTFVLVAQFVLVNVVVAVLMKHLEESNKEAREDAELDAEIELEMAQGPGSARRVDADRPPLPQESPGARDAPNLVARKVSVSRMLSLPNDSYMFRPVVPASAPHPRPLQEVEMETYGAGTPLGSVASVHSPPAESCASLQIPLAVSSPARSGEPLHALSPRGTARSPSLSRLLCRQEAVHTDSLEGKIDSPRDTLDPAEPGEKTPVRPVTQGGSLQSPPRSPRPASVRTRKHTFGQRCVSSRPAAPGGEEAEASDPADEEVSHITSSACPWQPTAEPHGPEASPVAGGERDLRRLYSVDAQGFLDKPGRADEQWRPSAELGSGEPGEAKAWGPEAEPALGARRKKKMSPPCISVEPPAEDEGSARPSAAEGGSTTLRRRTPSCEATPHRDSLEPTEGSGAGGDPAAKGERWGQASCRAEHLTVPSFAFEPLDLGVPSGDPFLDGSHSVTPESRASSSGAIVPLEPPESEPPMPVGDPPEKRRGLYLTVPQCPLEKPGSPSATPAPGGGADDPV
Type: cell-based
Excerpt: (§1) Functional evaluation of voltage-gated ion channels was used to determine potency and/or single concentration efficacy of proprietary compounds. Two different methodologies were used to measure ion currents: the IonWorks HT (Molecular Devices, Sunnyvale, Calif.) a moderate throughput voltage clamp screening platform that utilizes 96-well compound plates and conventional whole cell patch clamp for lower throughput, higher fidelity determinations.
HEK cells were transiently transfected and then selected for stable heterologous expression of different channel proteins of interest. Calcium channel cell lines expressed a resting potassium current, human Kir2.1, and the pore forming α-subunit of voltage-gated calcium channels. In the case of Cav2.1 cells the auxiliary subunit, β2a, was also expressed. […]
The holding potential was −100 mV for all protocols. […] Cav3.2 currents were measured as the peak current 10-30 milliseconds after the voltage was stepped to −35 mV. […] For hCav2.1 currents were activated with a 200 millisecond step to 0 mV. hCav2.1 currents were measured from the leak-subtracted traces as the average current between 190 and 200 milliseconds after the step to 0 mV. […] Sodium currents were measured from leak subtracted traces as the peak transient inward current.
All drug effects were measured after a steady-state effect was achieved. […]
`CC(C)CCN1CC2(CCN(C(=O)NC34CC5CC(CC(C5)C3)C4)CC2)C1c1ccc(F)cc1` (centres unmarked) gave an IC50 of 202 nM.
For `CC[C@H](C)[C@H](NC(=O)N1CCC2(CC1)CN(C(C)C)C2c1ccc(Br)cc1)C(=O)OC` (single isomer, unassigned), the IC50 was 82 nM.

These compounds were tested against T1, human Cav3.2 (assay: Ionworks screen for hCaV3.2 (IonWorks HT voltage clamp, T-type calcium current)). Conditions: IonWorks (IW) screen.
Type: cell-based
Excerpt: as §1
HEK cells were transiently transfected and then selected for stable heterologous expression of different channel proteins of interest. Calcium channel cell lines expressed a resting potassium current, human Kir2.1, and the pore forming α-subunit of voltage-gated calcium channels. In the case of Cav2.1 cells the auxiliary subunit, β2a, was also expressed. Calcium channel lines that were used to generate the data in this document expressed either human Cav3.2, rat Cav3.2 or human Cav2.1. The human heart sodium channel, hNav1.5, was stably expressed in CHO cells. These cells were licensed from the University of Pennsylvania.
Cell lines were grown at 37° C. in humidified incubators, equilibrated with 95% air/5% CO2. CHO cells were grown in Ham's F-12 medium. HEK cells were grown in DMEM. All media were supplemented with 10% heat-inactivated fetal bovine serum, penicillin, streptomycin and appropriate selection antibiotics (zeocin, geneticin and/or hygromycin). Cells were passaged when 80% confluent or less.
Ionworks Screen for hCaV3.2
The extracellular buffer for experiments using this instrument contained the following (mM) (NaCl 125, HEPES 10, KCl 5.4, CaCl2 1.8, MgCl2 1.8, 0.2 BaCl2 pH 7.35). The IonWorks uses amphotericin to gain electrical access to the cell interior. The internal solution contained (mM concentrations): 130 K-gluconate, 20 KCl, 5 HEPES-KOH (pH 7.25), 2 CaC12, 1 MgCl2. Amphotericin added at 5 mg in 65 ml when present (in 650 μl DMSO). All internal and external solutions for this experiment contain 1% DMSO. Cells were acutely trypsinized from a T-75 flask and resuspended in extracellular buffer at a density of 2×10^5 cells/ml.
Experiments were performed at room temperature, Transmembrane potential was held at −100 mV for 5 seconds prior to running the voltage protocol. During this time leak currents were measured during a step to −110 mV (200 milliseconds). T-type calcium currents were activated with a 250 millisecond step to −20 mV. This depolarization step was repeated for a total of 10 pulses with an interpulse interval of 1 second. Data were excluded if the following acceptance criteria were not met: total resistance for the pre-compound scan >65 MΩ, pre-compound current >250 pA, post compound total resistance >50 MΩ.
T-type currents were measured as the peak inward current minus the current at the end of the 250 msec step to −20 mV. After the recoding configuration was established there was a pre-compound measurement of current amplitude Compound was added as a 3× solution containing 1% DMSO. After incubation with compound for 10 minutes currents were measured again. The current amplitude after compound addition was divided by the pre-compound current for pulse 10 to determine the traction of current remaining after compound addition. For each compound, 8-point concentration-effect relationships were measured with ½ log serial dilutions.
`CC[C@H](C)[C@H](NC(=O)N1CCC2(CC1)CN(CCC(C)C)C2c1ccc(F)cc1)C(=O)OC` (some centres unmarked) gave an IC50 of 58 nM.
`CC(C)CCN1CC2(CCN(C(=O)NC34CC5CC(CC(C5)C3)C4)CC2)C1c1ccc(F)cc1` (centres unmarked) showed an IC50 of 68 nM.
With `CC(C)CCN1CC2(CCN(C(=O)Nc3cc(F)cc(F)c3)CC2)C1c1ccc(F)cc1` (centres unmarked) the IC50 was 70 nM.
`CC[C@H](C)[C@H](NC(=O)N1CCC2(CC1)CN(C(C)C)C2c1ccc(-c2ccccc2)cc1)C(=O)OC` (some centres unmarked) showed an IC50 of 76 nM.
`CC[C@H](C)[C@H](NC(=O)N1CCC2(CC1)CN(C(C)C)C2c1ccc(Br)cc1)C(=O)OC` (single isomer, unassigned) gave an IC50 of 24 nM.
`CC(C)N1CC2(CCN(C(=O)Nc3cccc(Cl)c3)CC2)C1c1ccc(Cl)cc1` (single isomer, unassigned) was tested, and the IC50 was 38 nM.
With `CC(C)N1CC2(CCN(C(=O)Nc3cc(F)cc(F)c3)CC2)C1c1ccc(Br)cc1` (single isomer, unassigned) the IC50 was 44 nM.
`CC(C)N1CC2(CCN(C(=O)Nc3ccc(Cl)cc3)CC2)C1c1ccc(Cl)cc1` (single isomer, unassigned) was tested, and the IC50 was 49 nM.
In the case of `CC(C)N1CC2(CCN(C(=O)Nc3cccc(C#N)c3)CC2)C1c1ccc(Cl)cc1` (single isomer, unassigned), the IC50 is reported as 50 nM.
Compound `CC(C)N1CC2(CCN(C(=O)Nc3cccc(F)c3)CC2)C1c1ccc(Br)cc1` (single isomer, unassigned) has an IC50 of 58 nM.
`CC(C)N1CC2(CCN(C(=O)Nc3cccc(F)c3)CC2)C1c1ccc(Cl)cc1` (single isomer, unassigned) gave an IC50 of 64 nM.
In the case of `CC[C@H](C)[C@H](NC(=O)N1CCC2(CC1)CN(C(C)C)C2c1ccc(Cl)cc1)C(=O)OC(C)(C)C` (single isomer, unassigned), the IC50 is reported as 85 nM.
`O=C(Nc1cc(F)cc(F)c1)N1CCC2(CC1)CN(c1ccc(F)c(Cl)c1)C2c1ccccn1` (single isomer, unassigned) was tested, and the IC50 was 60 nM.
Compound `CC(C)CCN1CC2(CCN(C(=O)Nc3cc(F)cc(F)c3)CC2)C1c1ccc(F)cc1` (single isomer, unassigned) has an IC50 of 76 nM.
Compound `CC[C@H](C)[C@H](NC(=O)N1CCC2(CC1)CN(CCC(C)C)C2c1ccc(F)cc1)C(=O)OC` (single isomer, unassigned) has an IC50 of 45 nM.

These compounds were tested against T2, human GPR119 (Homo sapiens, UniProt Q8TDV5) (assay: GPR119 screening assay (LANCE cAMP, HEK 293 cells stably transfected with human GPR119)). Conditions: HEK 293 cells stably transfected with human GPR119, LANCE cAMP; read-out: GPR 119 cAMP EC50.
T2 construct: expressed in transfected cells
T2 sequence (Q8TDV5 1-335): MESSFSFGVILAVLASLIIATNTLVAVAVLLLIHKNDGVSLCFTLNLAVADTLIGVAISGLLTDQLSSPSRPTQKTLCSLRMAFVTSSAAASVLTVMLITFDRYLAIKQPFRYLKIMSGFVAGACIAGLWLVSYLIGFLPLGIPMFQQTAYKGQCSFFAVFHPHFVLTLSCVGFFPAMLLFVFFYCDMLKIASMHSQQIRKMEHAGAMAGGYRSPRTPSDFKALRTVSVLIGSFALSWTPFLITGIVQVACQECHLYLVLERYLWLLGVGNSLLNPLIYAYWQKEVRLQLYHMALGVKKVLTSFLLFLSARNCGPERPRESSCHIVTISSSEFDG
Type: cell-based
Work on `COc1cc(C(=O)N2CCC3(CC2)CN(c2ccccc2F)C3c2ccc(Cl)cc2)cc(OC)c1OC` (centres unmarked) yielded an EC50 of 516 nM.
`COc1cc(C(=O)N2CCC3(CC2)CN(CC(C)C)C3c2ccccc2)cc(OC)c1OC` (centres unmarked) was tested, and the EC50 was 882 nM.
In the case of `COc1cc(C(=O)N2CCC3(CC2)CN(Cc2ccc(F)cc2F)C3c2ccc(F)cc2)cc(OC)c1OC` (centres unmarked), the EC50 is reported as 1200 nM.
Work on `COc1cc(C(=O)N2CCC3(CC2)CN(Cc2ccccc2Cl)C3c2ccccc2)cc(OC)c1OC` (centres unmarked) yielded an EC50 of 1260 nM.
`O=C(c1ccc2c(c1)OCCCO2)N1CCC2(CC1)CN(Cc1ccc(F)cc1F)C2c1ccc(F)cc1` (centres unmarked) was tested, and the EC50 was 1300 nM.
With `COc1cc(C(=O)N2CCC3(CC2)CN(c2ccc(C)cc2)C3c2ccc(Cl)cc2)cc(OC)c1OC` (centres unmarked) the EC50 was 1340 nM.
